# According to patent publication US7884136B2, “Modified-release formulations of a bupropion salt” (Biovail Laboratories International S.R.L., priority 2005, dated 2011):
# Like-named read-outs stand apart in the source and are kept apart here.
# Experiments:
# [1] = Recrystallization screen for bupropion hydrobromide polymorphic forms (PXRD); format: physicochemical; conditions: recrystallized product; solvent/cosolvent differ per trial, trial no. in label
# Method: It is well known that organic molecules can crystallize into solid forms. Moreover the same organic compound may assume different crystalline arrangements in solid form, depending on the conditions under which the crystal product is formed. This phenomenon is commonly known as polymorphism. A study was undertaken to explore the polymorphic forms of bupropion hydrobromide. The crystal forms of the products obtained in this study were determined by powder X-ray diffraction (PXRD). A RIGAKU miniflex instrument (Radiation Cu K∝, generator 30 KV, filter Ni) was used to obtain the PXRD data.
# Polymorphic form II was obtained by recrystallization of form 1 from solvents or mixtures of solvents such as acetone-water, methanol, dichloromethane, toluene-methanol and dimethylcarbonate-methanol. Polymorphic form III was obtained by recrystallization of polymorphic form I in methanol. Table 80 provides a list of recrystallization conditions and the polymorphic form obtained under each set of conditions.
# [2] = Moisture content of bupropion salts by KF; format: physicochemical; conditions: original API salts
# Method: (§1) The eight salts were first evaluated by HPLC, KF, pH and DSC for purity, water content, aqueous pH and possible polymorphs.
# (§2) The salts were analysed by DSC (at 10° C./min from 30° C. up to 400° C.) and the pH (aq. 0.5%), and the moisture content by KF were also measured. The TGA was performed on the HCl, maleate, tosylate and HBr salts.
# [3] = pH of 0.5% aqueous solution of bupropion salts; format: physicochemical; conditions: 0.5% aqueous solution, original API salts
# Method: as §1, §2
# [4] = cited from earlier work
# [5] = Forced degradation stability study of bupropion salts spiked with placebo/excipients, closed vials, 40° C./75% RH, HPLC assay and impurities; conditions: for Content of impurity 3-CBZ, order of salts / Content of impurity 852U77, order of salts / Total imp., order of salts: 32 days; for Stability in the forced degradation stability studies, overall: DS and spiked DS
# Method: The stability of the salts was evaluated based on the formation of the main degradation products (see below) as determined by HPLC analysis and the % potency (or assay) of the API, after specific time periods in the stability chamber. The effect of the addition of solvents, such as water, ethanol and isopropyl alcohol, was also studied.
# The samples of each salt and the spiked salts with the bupropion HCl XL were prepared under the conditions mentioned in Table 4. […] The stability of the bupropion salts were evaluated based on the formation of the main degradation product 3-chlorobenzoic acid (3-CBZ) and the intermediate degradation products diketone 827U76 and the ketohydroxyl derivatives (20U78 and 852U77) (Scheme 2).
# As mentioned above, the stability samples were prepared in 2 mL vials and used directly for assay and impurity analysis by HPLC without further sample preparations to minimize errors.
# [6] = Sorbitan Fatty Acid Ester Surfactants, as reported by the manufacturer
# [7] = Mono- and Diglyceride Surfactants
# [8] = PEG-Fatty Acid Monoester Surfactants
# [9] = PEG-Fatty Acid Diester Surfactants
# [10] = Sterol and Sterol Derivative Surfactants
# [11] = Sugar Ester Surfactants, as reported by the manufacturer
molecule,measurement,setting,value
Br.CC(NC(C)(C)C)C(=O)c1cccc(Cl)c1 (centres unmarked) [Bupropion Hydrobromide 097],K.F. (%),[1],0.06%
Br.CC(NC(C)(C)C)C(=O)c1cccc(Cl)c1 (centres unmarked) [Bupropion Hydrobromide 098A],K.F. (%),[1],0.13%
Br.CC(NC(C)(C)C)C(=O)c1cccc(Cl)c1 (centres unmarked) [Bupropion Hydrobromide 098B],K.F. (%),[1],0.16%
Br.CC(NC(C)(C)C)C(=O)c1cccc(Cl)c1 (centres unmarked) [Bupropion Hydrobromide 099],K.F. (%),[1],0.12%
Br.CC(NC(C)(C)C)C(=O)c1cccc(Cl)c1 (centres unmarked) [Bupropion Hydrobromide 108],K.F. (%),[1],0.14%
Br.CC(NC(C)(C)C)C(=O)c1cccc(Cl)c1 (centres unmarked) [Bupropion Hydrobromide 111],K.F. (%),[1],0.32%
Br.CC(NC(C)(C)C)C(=O)c1cccc(Cl)c1 (centres unmarked) [Bupropion Hydrobromide 112],K.F. (%),[1],0.18%
Br.CC(NC(C)(C)C)C(=O)c1cccc(Cl)c1 (centres unmarked) [Bupropion Hydrobromide 113],K.F. (%),[1],0.39%
CC(NC(C)(C)C)C(=O)c1cccc(Cl)c1.O=C(O)C(O)C(O)C(=O)O (centres unmarked) [Bupropion tartrate acid],"KF (moisture content), Original (Initial APIs)",[2],0.18%
same,"pH (aq. 0.5%), Original (Initial APIs)",[3],3.62
CC(NC(C)(C)C)C(=O)c1cccc(Cl)c1.CC(NC(C)(C)C)C(=O)c1cccc(Cl)c1.O=C(O)C(O)C(O)C(=O)O (centres unmarked) [Bupropion tartrate neutral],"KF (moisture content), Original (Initial APIs)",[2],0.14%
same,"pH (aq. 0.5%), Original (Initial APIs)",[3],3.62
CCCCCCCCCCCCCCCC(=O)OC[C@@H](O)[C@H]1OC[C@H](O)[C@H]1O [Sorbitan monopalmitate],HLB,[4]; [6],6.7
Bupropion Fumarate,"KF (moisture content), Original (Initial APIs)",[2],0.09%
same,"Content of impurity 3-CBZ, order of salts","[5]; In IPA/EtOH, closed vials",maleate > HBr > HCl > Fumarate
same,"Content of impurity 852U77, order of salts","[5]; In IPA/EtOH, closed vials",fumarate > HBr ≈ HCl ≈ maleate ≈ tosylate
same,"Total imp., order of salts","[5]; In IPA/EtOH, closed vials",fumarate > maleate > HBr > HCl > tosylate
same,"Content of impurity 3-CBZ, order of salts","[5]; In water, closed vials",HCl > HBr ≈ maleate ≈ fumarate
same,"Content of impurity 852U77, order of salts","[5]; In water, closed vials",fumarate > HBr > maleate > HCl
same,"Total imp., order of salts","[5]; In water, closed vials",fumarate > HBr > HCl > tosylate > maleate
same,"pH (aq. 0.5%), Original (Initial APIs)",[3],3.84
Bupropion succinate,"KF (moisture content), Original (Initial APIs)",[2],0.13%
same,"pH (aq. 0.5%), Original (Initial APIs)",[3],4.82
Distearin,HLB,[4]; [7],<10
Glyceryl dioleate,HLB,[4]; [7],3-4
Glyceryl monostearate,HLB,[4]; [7],4.4
PEG 4-100 monolaurate,HLB,[4]; [8],>9
PEG 4-100 monooleate,HLB,[4]; [8],>8
PEG 4-100 monostearate,HLB,[4]; [8],>6
"PEG 100, 200, 300 monolaurate",HLB,[4]; [8],>10
"PEG 100, 200, 300 monooleate",HLB,[4]; [8],>10
PEG 400 dioleate,HLB,[4]; [8],>10
PEG 400 distearate,HLB,[4]; [8],>10
PEG 400-1000 monostearate,HLB,[4]; [8],>10
PEG-1 stearate,HLB,[4]; [8],2
PEG-2 oleate,HLB,[4]; [8],4.5
PEG-2 stearate,HLB,[4]; [8],4
PEG-4 dilaurate [listing 1 of 2 here],HLB,[4]; [9],7
PEG-4 dilaurate [listing 2 of 2 here],HLB,[4]; [9],6
PEG-4 dioleate,HLB,[4]; [9],6
PEG-4 distearate,HLB,[4]; [9],5
PEG-4 oleate,HLB,[4]; [8],8.3
PEG-4 stearate,HLB,[4]; [8],6.5
PEG-5 oleate,HLB,[4]; [8],9.5
PEG-5 stearate,HLB,[4]; [8],9.5
PEG-6 dilaurate,HLB,[4]; [9],9.8
PEG-6 dioleate,HLB,[4]; [9],7.2
PEG-6 distearate,HLB,[4]; [9],6.5
PEG-6 stearate,HLB,[4]; [8],9.7
PEG-7 oleate,HLB,[4]; [8],10.4
PEG-8 dioleate,HLB,[4]; [9],8.8
PEG-9 oleate,HLB,[4]; [8],>10
PEG-9 stearate,HLB,[4]; [8],>10
PEG-10 dipalmitate,HLB,[4]; [9],>10
PEG-12 dilaurate,HLB,[4]; [9],11.7
PEG-12 dioleate,HLB,[4]; [9],10
PEG-12 distearate,HLB,[4]; [9],10.7
PEG-12 oleate,HLB,[4]; [8],14
PEG-12 ricinoleate,HLB,[4]; [8],>10
PEG-12 stearate,HLB,[4]; [8],14
PEG-15 stearate,HLB,[4]; [8],14
PEG-20 glyceryl oleate,HLB,[4]; PEG Glycerol Fatty Acid Esters,>10
PEG-24 cholesterol ether,HLB,[4]; [10],>10
PEG-30 cholestanol,HLB,[4]; [10],>10
PEG-30 glyceryl oleate,HLB,[4]; PEG Glycerol Fatty Acid Esters,>10
PEG-30 stearate,HLB,[4]; [8],>10
PEG-40 oleate,HLB,[4]; [8],17.4
PEG-40 stearate,HLB,[4]; [8],>10
PEG-50 stearate,HLB,[4]; [8],>10
PEG-100 oleate,HLB,[4]; [8],18.8
PEG-100 stearate,HLB,[4]; [8],19
PEG-200 oleate,HLB,[4]; [8],>10
PEG-400 dioleate,HLB,[4]; [9],>10
PEG-400 distearate,HLB,[4]; [9],>10
PEG-400 oleate,HLB,[4]; [8],>10
PEG-600 oleate,HLB,[4]; [8],>10
Pentaerythrityl tetraisostearate,HLB,[4]; Transesterification Products of Oils and Alcohols,<10
Polyglyceryl-2 dioleate,HLB,[4]; Polyglycerized Fatty Acids,7
Polyglyceryl-2 isostearate,HLB,[4]; Polyglycerized Fatty Acids,5-7
Polyglyceryl-2 oleate,HLB,[4]; Polyglycerized Fatty Acids,5-7
Polyglyceryl-2 stearate,HLB,[4]; Polyglycerized Fatty Acids,5-7
Polyglyceryl-3 dioleate,HLB,[4]; Polyglycerized Fatty Acids,<10
Polyglyceryl-3 distearate,HLB,[4]; Polyglycerized Fatty Acids,<10
Polyglyceryl-3 oleate,HLB,[4]; Polyglycerized Fatty Acids,6.5
Polyglyceryl-4 oleate,HLB,[4]; Polyglycerized Fatty Acids,5-7
Polyglyceryl-4 pentaoleate,HLB,[4]; Polyglycerized Fatty Acids,<10
Polyglyceryl-4 stearate,HLB,[4]; Polyglycerized Fatty Acids,5-6
Polyglyceryl-6 oleate,HLB,[4]; Polyglycerized Fatty Acids,9
Polyglyceryl-6 pentaoleate,HLB,[4]; Polyglycerized Fatty Acids,<10
Polyglyceryl-10 decaisostearate,HLB,[4]; Polyglycerized Fatty Acids,<10
Polyglyceryl-10 decaoleate,HLB,[4]; Polyglycerized Fatty Acids,3.5
Polyglyceryl-10 oleate,HLB,[4]; Polyglycerized Fatty Acids,14
Polyglyceryl-10 pentaoleate,HLB,[4]; Polyglycerized Fatty Acids,3.5
Polyglyceryl-10 septaoleate,HLB,[4]; Polyglycerized Fatty Acids,3
Polyglyceryl-10 tetraoleate,HLB,[4]; Polyglycerized Fatty Acids,6.2
Polyglyceryl-10 trioleate,HLB,[4]; Polyglycerized Fatty Acids,7
Sorbitan monoisostearate,HLB,[4]; [6],4.7
Sorbitan monooleate,HLB,[4]; [6],4.3
Sorbitan monostearate,HLB,[4]; [6],4.7
Sorbitan sesquistearate,HLB,[4]; [6],4.2
Sorbitan trioleate,HLB,[4]; [6],4.3
Sucrose dipalmitate,HLB,[4]; [11],7.4
Sucrose distearate,HLB,[4]; [11],3
Sucrose monopalmitate,HLB,[4]; [11],>10
oxalate,"Stability in the forced degradation stability studies, overall",[5]; 40° C./75% RH,very poor
tartrate,Stability in the 10 days forced degradation study,"[5]; 10 days, 40° C./75% RH, closed vials, with or without excipients",not stable
same,"Stability in the forced degradation stability studies, overall",[5]; 40° C./75% RH,very poor
